Measured values as given in a melting point compilation (Tetko et al.; mined from patent text by program, amines drawn as free bases though some values may be those of a salt).

Molecule `Cc1c(F)cc(O)c2c(=O)c(C(=O)O)cn([C@@H]3C[C@@H]3F)c12` has a melting point of 209 to 213 °C. Molecule `CCC(CC)Nc1cc(C)nc(Oc2c(C)cc(C)cc2C)c1NC(C)=O` has a melting point of 154 to 156 °C. In the case of `COc1ccccc1N1CCN(CCCOc2cc(C(=O)c3cc4ccccc4[nH]3)ccc2OCc2ccc(C)cc2)CC1`, the melting point is reported as 126 to 128 °C. In the case of `CNCC1CC(C)(O)c2ccc(S(=O)(=O)c3ccccc3)cc2O1` (stereo not drawn), the melting point is reported as 164 to 165 °C. `CCCCCCCCCCCCc1cc(Cc2ccccc2)on1` showed a melting point of 41 to 43 °C. Work on `Cc1cc(-c2cc3c(cc2F)c(=O)c(C(=O)O)cn3C2CC2)cc(C)n1` yielded a melting point of 300 to 302 °C. In the case of `CC1SCCCNC1=O` (stereo not drawn), the melting point is reported as 192 to 193 °C. For `O=S(=O)(Nc1cc(C(F)(F)F)ccc1Oc1ccccc1CO)c1cc(C(F)(F)F)cc(C(F)(F)F)c1`, the melting point was 123 to 125 °C. In the case of `c1cn(CCCc2ccc(OCc3coc(-c4cc5c(s4)CCCC5)n3)cc2)cn1`, the melting point is reported as 83 to 84 °C. Molecule `COC(=O)c1cnc(NC(C)C)nc1C` has a melting point of 118 to 119 °C. `COC(=O)c1nn(Cc2ccccc2)c2ccccc12` gave a melting point of 72 to 73 °C. Molecule `CC(C)(C)NC(=O)[C@H](Cc1ccc([N+](=O)[O-])cc1)NC(=O)OC(C)(C)C` has a melting point of 158 to 159 °C. Work on `Cc1noc(NS(=O)(=O)c2ccccc2Br)c1Br` yielded a melting point of 84 to 86 °C. In the case of `COc1cc2c(cc1F)C(=O)c1cc3ccccc3cc1C2=O`, the melting point is reported as > 250 °C. Work on `COc1cc(OC)c2c(=O)[nH]c(-c3ccc4[nH]c(CCN5CCCC5)cc4c3)nc2c1` yielded a melting point of 215 to 217 °C. `N#Cc1cccc(-c2ccc(-c3cccc(C#N)c3)o2)c1` showed a melting point of 163 to 164 °C. For `Cc1ccc2c(c1)c(O)c(C(=O)NC1CCCCC1)c(=O)n2Cc1ccccc1`, the melting point was 87 °C. `N#Cc1cnn2c(-c3ccncc3)ccnc12` gave a melting point of 137 to 138 °C. Molecule `Cc1cc(CC(C)(C)C=O)cc(C)c1O` has a melting point of 72 to 73 °C. `COc1ccc(OCC2CC(Cn3ccnc3)(c3ccc4ccccc4c3)N(C)O2)cc1` (stereo not drawn) gave a melting point of 143 to 145 °C. Molecule `COc1ccc2c(c1)C(Cl)c1ccccc1CO2` (stereo not drawn) has a melting point of 133 to 134 °C. Work on `CC(C)=NNc1cc2c(nn1)CCN(C(=O)C1CCC1)C2` yielded a melting point of 175 to 178 °C. For `CCCc1c2c(c(F)c3c(=O)cc(C(=O)OCC)oc13)CCCC2`, the melting point was 126 to 129 °C. Work on `O=C(CSCc1ccc(Cl)c(Cl)c1)NO` yielded a melting point of 75 to 76 °C. With `O=C(Nc1n[nH]c(=S)s1)N[C@@H](Cc1ccccc1)C(=O)N1CCN(c2ccccn2)CC1` the melting point was 220 to 222 °C. Work on `O=c1[nH]nc2n1C=Cc1ccccc1C2` yielded a melting point of 208 to 210 °C. `NC(=O)N(O)Cc1ccc2c(c1)CCN2Cc1ccccc1` gave a melting point of 107 °C. With `CC(C)(C)C(=O)NCCc1cccs1` the melting point was 79 to 80 °C. Molecule `Nc1ccc2oc(CCC(F)(F)F)cc2c1` has a melting point of 74 °C. For `O=C(Cn1cc(Cc2ccccc2)cc(NC(=O)OCc2ccccc2)c1=O)NC(Cc1ccccc1)C(=O)C(F)(F)F` (stereo not drawn), the melting point was 127 to 130 °C. With `O=C(Nc1nccs1)/C(=C/C1CCCC1)c1ccc(Cl)c(Cl)c1` the melting point was 57 to 59 °C. For `COc1cc(CCl)c(CCl)cc1OCCCl`, the melting point was 117 to 118 °C. `CSC1C(=O)Nc2ccc(Oc3ccccc3Cl)cc21` (stereo not drawn) showed a melting point of 120 to 123 °C. In the case of `Fc1ccc(N2CCN(c3cccc(C(F)(F)F)c3)CC2)nn1`, the melting point is reported as 132 °C. Molecule `C[C@@H]1O[C@@]1(Cn1ccnc1)c1ccc(F)cc1F` has a melting point of 73 to 76 °C. Molecule `Ic1ccc(OC23CC4CC(CC(C4)C2)C3)cc1` has a melting point of 115 to 118 °C. `CCOC(=O)CN(C#N)Cc1cc(-n2cc(C)nc2C)cc(C)c1N` showed a melting point of 135 to 140 °C. Work on `COc1ccccc1N1CCN(CC(O)COc2cc(C)c(O)c(C)c2C)CC1` (stereo not drawn) yielded a melting point of 163 to 165 °C. `Cn1cncc1C(O)(c1ccc(F)cc1)c1ccc2c(c1)C(c1cccc(Cl)c1)n1nnnc1N2` (stereo not drawn) showed a melting point of 180 °C. Molecule `O=C(CN1C(=O)C2(COc3cc4c(cc32)CCO4)c2ccccc21)Nc1ccccc1F` (stereo not drawn) has a melting point of 210 to 212 °C. Work on `NC(=O)c1cn([C@@H](CO)CCn2ccc3ccccc32)cn1` yielded a melting point of 127 to 130 °C. With `CCCCn1c(C)nc(SC)nc1=O` the melting point was 62 to 63 °C. For `O=C1C(=O)c2ccccc2C2=C1SCC1(CCCNC1)O2` (stereo not drawn), the melting point was 128 to 134 °C. `CC(C)(C)OC(=O)N1CCc2c(n(CC(=O)Nc3ccccc3)c3ccc(Cl)c(Cl)c23)CC1` showed a melting point of 208 to 210 °C. `O=C(OC1CCN(c2ccc3[nH]c(=O)ccc3c2)CC1)c1ccccc1` showed a melting point of 212 to 215 °C. With `C=C(C)C(=O)c1cc(O)c(O)c([N+](=O)[O-])c1` the melting point was 98 to 102 °C. Work on `CC(=O)c1ccccc1-c1ccc(C(=O)O)cc1` yielded a melting point of 199 to 201 °C. `CC1(C)CCC(C)(C)c2cc(C(C(N)=O)C(=O)OCc3ccccc3)ccc21` (stereo not drawn) showed a melting point of 112 to 113 °C. With `CCOC(=O)CC1(S(N)(=O)=O)c2ccccc2-c2ccc(Cl)cc21` (stereo not drawn) the melting point was 246 to 248 °C. For `CC(CCNC(=O)CC#N)NC(=O)CC#N` (stereo not drawn), the melting point was 145 °C. With `CSCC(=O)c1ccc(O)c(O)c1` the melting point was 107 °C. `O=c1oc(=O)n(Cc2cccs2)c2ccccc12` gave a melting point of 137 to 140 °C. With `COc1ccc(C2CNC(=O)C2)cc1Br` (stereo not drawn) the melting point was 151 to 154 °C. With `CCOc1c([C@@H]2C[C@H]2C=O)cc(C(C)(C)C)cc1C(C)(C)C` (racemic) the melting point was 123 to 126 °C. For `CCCCCCC(=O)c1c(O)oc(=O)c(C(=O)CCCCCC)c1O`, the melting point was 88 to 90 °C. For `Cc1nc(N)c2nc(CONC(C)C)n(CCCCNC(=O)c3ccccc3)c2c1C`, the melting point was 161 to 162 °C. With `COc1cc(CCNC(=O)[C@@H](NC(=O)OC(C)(C)C)C(C)C)ccc1OCc1ccccc1` the melting point was 115 to 118 °C. With `CCNC(SC)=C(C#N)C(=O)OC` the melting point was 86 to 88 °C. Work on `Oc1ccc(-c2cccc(Cl)c2)cc1` yielded a melting point of 98 to 101 °C. Work on `Cc1c(NC(=O)NC(C)(C)C)c(C)c2c(c1C(C)O)OCC2c1ccc(C(C)C)cc1` (stereo not drawn) yielded a melting point of 212 to 214 °C. In the case of `CCc1nc(-c2cccc(C)c2)c(-c2ccnc(NC(=O)C3CCCCC3)c2)s1`, the melting point is reported as 98 to 100 °C. Work on `COCCc1nc2c(N)nc3ccccc3c2n1CCOCCS(C)(=O)=O` yielded a melting point of 142 to 144 °C. In the case of `COc1cc(C)nc2c(OCc3c(Cl)ccc(NC(=O)CN4C(=O)c5ccccc5C4=O)c3Cl)cccc12`, the melting point is reported as 184 to 185 °C. For `Nc1cc(C(=O)N2CCC2)cc(C(F)(F)F)c1`, the melting point was 154 °C. For `CS(=O)(=O)c1ccc(-c2cc(C(=O)CCCO[N+](=O)[O-])nn2C2CCCCC2)cc1`, the melting point was 122 to 124 °C. In the case of `CCc1cc2c(Cl)cc(F)c(-n3c(=O)cc(C(F)(F)F)[nH]c3=O)c2o1`, the melting point is reported as 154 to 155 °C. Work on `COc1ccccc1-n1c(=O)[nH]c2c(C(N)=O)nc(-c3ccnc(O)c3)nc21` yielded a melting point of 360 to 362 °C. For `O=C1CC(=O)C(C2CCCSC2)CO1` (stereo not drawn), the melting point was 91 to 93 °C. With `COC(=O)C1=Cc2ccc(O)cc21` the melting point was 108 to 109 °C. For `CCCCCC(=O)C=Cc1ccc(Cl)cc1`, the melting point was 44 to 47 °C. In the case of `Cc1ccc(C#CC2(O)CN3CCC2CC3)nc1` (stereo not drawn), the melting point is reported as 176 to 180 °C. `COc1ccc(F)cc1C(C)(C)CC(=O)C(=O)O` showed a melting point of 58 to 60 °C. Molecule `CCOc1cc(Cc2cnc(N)nc2N)cc2c1OC1(C=C2Br)CCC1` has a melting point of 213 to 214 °C. Molecule `CC(=O)NC[C@H]1CN(c2ccc(/C=C3/C(=O)N(C)c4ccccc43)cc2)C(=O)O1` has a melting point of 193 to 195 °C. `CCc1nn2c(-c3ccc(OC)cc3Cl)cccc2c1N(CC)CCCF` gave a melting point of 76.6 to 79.6 °C. Work on `COC1=C(Cl)C(Cl)C(C(=O)C2(C3=CCCCC3)C=CC(OC)=C(Cl)C2Cl)(C2=CCCCC2)C=C1` (stereo not drawn) yielded a melting point of 126 to 129 °C. In the case of `Fc1ccc(OC(CN2CCN(c3ccccc3)CC2)c2ccccc2)cc1` (stereo not drawn), the melting point is reported as 80 to 82 °C. With `O=S(=O)(N[C@H](CO)Cc1c[nH]c2ccccc12)c1cccc2ccccc12` the melting point was 85 to 87 °C. For `C=CCNC(=O)c1cc(CCc2cc3c(s2)-n2c(C)nnc2CN=C3c2ccccc2Cl)ccc1CC(=O)Nc1cccc(/C=C/c2nc(C3CCC3)cs2)c1`, the melting point was 127 to 132 °C. In the case of `CC1CCCC(C)N1c1cc(F)cc(C(=O)Nc2ccc(OCCN3CCOCC3)c3ccccc23)c1` (stereo not drawn), the melting point is reported as 105 to 107 °C. In the case of `COc1cccc2c1CN(c1nc3c(cc1F)c(=O)c(C(=O)O)cn3C1CC1)C2`, the melting point is reported as > 300 °C. With `COC(=O)NNC(=O)CC(C)(C)C` the melting point was 83 to 84.5 °C. `COC(=O)c1cccc(COc2ccc(S(=O)(=O)c3ccc(C)nc3Nc3c(C)cc(C)cc3C)cc2)c1` gave a melting point of 148 to 150 °C. `CN1C(=O)C(CN2CCCCC2)CC1C1CC1c1ccccc1Cl` (stereo not drawn) gave a melting point of 87 to 90 °C. Molecule `CC#CCn1c(Cl)nc2c1c(=O)n(C)c(=O)n2C` has a melting point of 105 to 108 °C. `CN(C)c1ccc(S(=O)(=O)NCCCCC(=O)O)cc1` gave a melting point of 105 to 110 °C. `CC1(C)CC(c2ccccc2)c2ccc(OCC3CO3)cc2O1` (stereo not drawn) gave a melting point of 82 to 85 °C. Molecule `O=C(NCCNS(=O)(=O)c1ccc(Oc2ccccc2)cc1)P(=O)(O)O` has a melting point of 166 to 169 °C. Work on `COC(=O)C(C#N)(Cc1ccc(-c2cccc(C(F)(F)F)c2)cc1)C(c1ccccc1OC)c1cccc2ccccc12` (stereo not drawn) yielded a melting point of 202 to 204 °C. Work on `Oc1ccc2c(c1)CC(NCc1ccccc1)CC2` (stereo not drawn) yielded a melting point of 161 to 163 °C. `CCC(OC(C)=O)c1ccc(Cl)c2nc3n(c12)CCCN3c1ccc(N(C)C)nc1C` (stereo not drawn) showed a melting point of 165 to 166 °C. For `C=C(c1ccc(OC)c(OC2CCCC2)c1)c1n[nH]cc1CO`, the melting point was 121 to 123 °C. For `COc1ccc(C=CCN2CCc3nc(N)sc3CC2)cc1`, the melting point was 155 to 160 °C. `CCCNC(=O)N(Cc1ccc(C)cc1)NC(=O)OC(C)(C)C` gave a melting point of 87.8 to 89.4 °C. In the case of `O=[N+]([O-])c1ccc(F)cc1CBr`, the melting point is reported as 38 to 41 °C. `COc1cc(I)nc(N)n1` showed a melting point of 142 to 144 °C. With `CCCCCCCOCCC(=O)Oc1ccc(N=Nc2ccc(OCCCCCC)cc2)cc1` the melting point was 69 °C. For `COc1ccccc1-c1c(C)c(C)c2cnc(Nc3ccc(N4CCOCC4)cc3)nn12`, the melting point was 169 to 172 °C. For `c1ccc(CN(c2ccccc2)c2ccc(N(Cc3ccccc3)c3ccccc3)cc2)cc1`, the melting point was 149 to 151 °C. Work on `Cc1cc(CCCCCCCOc2ccc(C3=NCCO3)cc2Cl)on1` yielded a melting point of 88 °C. For `COCCOCC(=O)Nc1cccc2c1C1(COc3cc4c(cc31)OCCO4)C(=O)N2C` (stereo not drawn), the melting point was 122 to 123 °C. For `Cn1cc(-c2ccc(C34CCCN(CC3)C4)cn2)cn1` (racemic), the melting point was 138 to 140 °C. With `CN(C)C=C(C(=O)C(=O)c1ccccc1)c1ccc(C(=O)O)cc1` the melting point was 208 to 209 °C.
